Where two headings read alike, the source gives them in different places. Some results are limits rather than exact numbers.

The target of one assay is BRD4 (Homo sapiens, UniProt O60885). As to the kind of experiment: In vitro AlphaScreen protein binding assay (competition with biotinylated JQ1). On the technique in general: Bead proximity is the source of the signal in Alpha formats.
For assay [1], the system named is BRD4-dependent Nut-Midline Carcinoma line 797. Nature of the assay: Cell viability (ATPlite) in BRD4 dependant cell line 797. The note with it: Homo sapiens.
The mark [2] stands for this setting: read-out: BRD4--IC50, Table 6, biochemical.
The mark [3] stands for this setting: Table 1, in vitro, AlphaScreen, inhibiting the activity of BRD4.
[4] abbreviates: read-out: BRD4--IC50, Table 7, biochemical.

Take `Cc1ccc2nc(-c3ccc(-c4c(C)noc4C)cc3)c(NC(C)(C)C)n2c1` [Compound 27a, N-(tert-butyl)-2-(4-(3,5-dimethylisoxazol-4-yl)phenyl)-6-methylimidazo[1,2-a]pyridin-3-amine]: at BRD4 (setting [2]), the IC50 worked out at 3.17 µM.

For the compound `Cc1noc(C)c1-c1ccc(-c2nc3ccccn3c2N)cc1` [Compound 12a, 2-(4-(3,5-Dimethylisoxazol-4-yl)phenyl)imidazo[1,2-a]pyridin-3-amine], on BRD4 (setting [2]), the half-maximal inhibitory concentration (IC50) turned out to be 3.89 µM. In the case of `Cc1noc2ccc(-c3ccc(-c4nc5ccccn5c4NCc4ccccc4)cc3)cc12` [UMB22], the concentration for a half-maximal effect (EC50) in assay [1] turned out to be 12.4 µM. This compound showed an IC50 on BRD4 (setting [3]) of 68.3 µM.

In assay [1], `Cc1noc(C)c1-c1cccc(-c2nc3ccccn3c2NCc2ccccc2)c1` [UMB26] had an EC50 of 20.2 µM. In addition, at BRD4 (setting [3]), the 50% inhibitory concentration (IC50) turned out to be 5.1 µM. With `Cc1noc(C)c1-c1ccc(-c2nc3cnccn3c2NCC(=O)OC(C)(C)C)cc1` [Compound 24a, Tert-butyl (2-(4-(3,5-dimethylisoxazol-4-yl)phenyl)imidazo[1,2-a]pyrazin-3-yl)glycinate], on BRD4 (setting [2]), the half-maximal inhibitory concentration (IC50) came to 4.96 µM.

For the compound `COc1ccc(Nc2c(-c3ccc(-c4c(C)noc4C)cc3)nc3cc(OC)ncn23)cc1` [UMB24, 2-(4-(3,5-Dimethylisoxazol-4-yl)phenyl)-7-methoxy-N-(4-methoxy-phenyl)imidazo[1,2-c]pyrimidin-3-amine], the 50% effective concentration (EC50) in assay [1] and in assay [1] (read-out: 797--EC50 (μM)) was 11.8 µM each time. Also, the half-maximal inhibitory concentration (IC50) at BRD4 (setting [3]) and on BRD4 (setting [2]) was 2.89 µM each time.

With `Cc1noc(C)c1-c1ccc(-c2nc3cnccn3c2NCC(=O)O)cc1` [Compound 22a, 2-((2-(4-(3,5-Dimethylisoxazol-4-yl)phenyl)imidazo[1,2-a]pyrazin-3-yl)amino)acetic acid], the IC50 at BRD4 (BRD4--IC50 (μM), Table 6, biochemical) was greater than 100 µM. Consider `Cc1noc(C)c1-c1ccc(-c2nc3cnccn3c2NC(C)C)cc1` [UMB57, 2-(4-(3,5-dimethylisoxazol-4-yl)phenyl)-N-isopropylimidazo[1,2-a]pyrazin-3-amine], for which, in assay [1] (read-out: 797--EC50 (μM)), the EC50 was 0.494 µM. Also, at BRD4 (setting [2]), the IC50 was 0.807 µM.

Consider `Cc1noc(C)c1-c1ccc(-c2nc3cnccn3c2N[C@@H](C)c2ccccc2)cc1` [Compound 21a, (S)-2-(4-(3,5-dimethylisoxazol-4-yl)phenyl)-N-(1-phenylethyl)imidazo[1,2-a]pyrazin-3-amine], for which the half-inhibitory concentration (IC50) on BRD4 (setting [2]) amounted to 2.86 µM.

In the case of `CCOC(=O)CNc1c(-c2ccc(-c3c(C)noc3C)cc2)nc2cnccn12` [Compound 23a, Ethyl 2-((2-(4-(3,5-dimethylisoxazol-4-yl)phenyl)imidazo[1,2-a]pyrazin-3-yl)amino)acetate], on BRD4 (setting [2]), the IC50 was found to be 4.53 µM. The same measure, in the same setting: the value for `Cc1noc(C)c1-c1ccc(-c2nc3ccc(C(=O)O)cn3c2NC(C)(C)C)cc1` [Compound 30a, 3-(Tert-butylamino)-2-(4-(3,5-dimethylisoxazol-4-yl)phenyl)imidazo[1,2-a]pyridine-6-carboxylic acid] was 0.968 µM.

Consider `Cc1noc(C)c1-c1ccc(-c2nc3cnccn3c2NC(C)(C)C)cn1` [UMB53, N-(tert-butyl)-2-(6-(3,5-dimethylisoxazol-4-yl)pyridin-3-yl)imidazo[1,2-a]pyrazin-3-amine], for which the half-maximal effective concentration (EC50) in assay [1] (read-out: 797--EC50 (μM)) was greater than 100 µM. The concentration for half-maximal inhibition (IC50) at BRD4 (setting [4]) was determined as 51.9 µM. Regarding `Cc1noc(C)c1-c1ccc(-c2nc3ncccn3c2NC(C)(C)C)cc1` [Compound 33a, N-(Tert-butyl)-2-(4-(3,5-dimethylisoxazol-4-yl)phenyl)imidazo[1,2-a]pyrimidin-3-amine], on BRD4 (setting [2]), the half-maximal inhibitory concentration (IC50) was 0.86 µM.

Take `COc1ccc(Nc2c(-c3ccc(-c4c(C)noc4C)cc3)nc3ccccn23)cc1` [UMB30, 2-(4-(3,5-Dimethylisoxazol-4-yl)phenyl)-N-(4-methoxyphenyl)imidazo-[1,2-α]pyridin-3-amine]: the EC50 in assay [1] and in assay [1] (read-out: 797--EC50 (μM)) was 7.36 µM throughout. Further, the concentration for half-maximal inhibition (IC50) on BRD4 (setting [3]) and on BRD4 (setting [2]) was 2.76 µM throughout. Take `COC(=O)c1ccc2nc(-c3ccc(-c4c(C)noc4C)cc3)c(NC(C)(C)C)n2c1` [Compound 29a, Methyl 3-(tert-butylamino)-2-(4-(3,5-dimethylisoxazol-4-yl)phenyl)imidazo[1,2-a]pyridine-6-carboxylate]: the IC50 at BRD4 (setting [2]) came to 1.62 µM. With `Cc1noc(C)c1-c1cccc(C2Nc3ccccc3NC3=C2C(=O)OC3)c1` (stereo not drawn) [UMB27, 10-(3-(3,5-Dimethylisoxazol-4-yl)phenyl)-3,4,9,10-tetrahydro-1H-benzo[b]furo[3,4-e][1,4]diazepin-1-one], the EC50 in assay [1] is 207 µM; in assay [1] (read-out: 797--EC50 (μM)) it was greater than 100 µM. Also, the IC50 at BRD4 (setting [3]) was found to be 2.05 µM; at BRD4 (read-out: BRD4--IC50, Table 5, biochemical), 2.05 µM. Regarding `Cc1noc(C)c1-c1ccc(-c2nc3cnccn3c2NC(C)(C)C)cc1F` [UMB55, N-(tert-butyl)-2-(4-(3,5-dimethylisoxazol-4-yl)-3-fluorophenyl)imidazo[1,2-a]pyrazin-3-amine], in assay [1] (read-out: 797--EC50 (μM)), the EC50 was found to be 12.8 µM. The IC50 on BRD4 (setting [4]) is 13 µM. `Cc1noc(C)c1-c1ccc(-c2nc3c(C(F)(F)F)cccn3c2NC(C)(C)C)cc1` [Compound 28a, N-(tert-butyl)-2-(4-(3,5-dimethylisoxazol-4-yl)phenyl)-8-(trifluoromethyl)imidazo[1,2-a]pyridin-3-amine]: the IC50 at BRD4 (setting [2]) was found to be 11.9 µM. Take `Cc1noc(C)c1-c1ccc(-c2nc3cnccn3c2NCc2ccccc2)cc1` [UMB21, N-Benzyl-2-(4-(3,5-dimethylisoxazol-4-yl)phenyl)imidazo[1,2-α]-pyrazin-3-amine]: the EC50 in assay [1] and in assay [1] (read-out: 797--EC50 (μM)) was 49.1 µM each time. In addition, the half-maximal inhibitory concentration (IC50) at BRD4 (setting [3]) and at BRD4 (setting [2]) was 18.8 µM in each case.

For `Cc1noc(C)c1-c1ccc(-c2nc3ccc(Cl)cn3c2NC(C)(C)C)cc1` [UMB31, N-(t-Butyl)-6-chloro-2-(4-(3,5-dimethylisoxazol-4-yl)phenyl)-imidazo-[1,2-α]pyridin-3-amine], the half-maximal effective concentration (EC50) in assay [1] and in assay [1] (read-out: 797--EC50 (μM)) was 2.19 µM each time. In addition, the half-inhibitory concentration (IC50) at BRD4 (setting [3]) and on BRD4 (setting [2]) was 1.17 µM throughout. Take `Cc1noc(C)c1-c1ccc(-c2nc3ccccn3c2NC(C)(C)C)cc1` [UMB29, N-(t-Butyl)-2-(4-(3,5-dimethylisoxazol-4-yl)phenyl)imidazo[1,2-α]pyridin-3-amine]: the half-maximal effective concentration (EC50) in assay [1] and in assay [1] (read-out: 797--EC50 (μM)) was 2.04 µM each time. In addition, the half-maximal inhibitory concentration (IC50) on BRD4 (setting [3]) and at BRD4 (setting [2]) was 0.479 µM each time. With `COc1cc(-c2c(C)noc2C)ccc1-c1nc2cnccn2c1NC(C)(C)C` [Compound 39a, N-(tert-butyl)-2-(4-(3,5-dimethylisoxazol-4-yl)-2-methoxyphenyl)imidazo[1,2-a]pyrazin-3-amine], the IC50 at BRD4 (setting [4]) was 0.562 µM. For `COc1cc(-c2c(C)noc2C)ccc1-c1nc2cnccn2c1NC(C)C` [Compound 40a, 2-(4-(3,5-dimethylisoxazol-4-yl)-2-methoxyphenyl)-N-isopropylimidazo[1,2-a]pyrazin-3-amine], the IC50 at BRD4 (setting [4]) worked out at 0.474 µM. For the compound `Cc1noc(C)c1-c1ccc(-c2nc3ccncn3c2NC(C)(C)C)cc1` [UMB56, N-(Tert-butyl)-2-(4-(3,5-dimethylisoxazol-4-yl)phenyl)imidazo[1,2-c]pyrimidin-3-amine], on BRD4 (setting [2]), the IC50 stood at 20.7 µM. The same measure, in the same setting: the value for `CCCCNc1c(-c2ccc(-c3c(C)noc3C)cc2)nc2cnccn12` [Compound 35a, N-butyl-2-(4-(3,5-dimethylisoxazol-4-yl)phenyl)imidazo[1,2-a]pyrazin-3-amine] was 1.66 µM.

One may read the IC50 as the point on the concentration scale where inhibition reaches its midpoint. The term EC50 denotes the concentration that produces a half-maximal response.

The record behind these values is patent US9975896B2, “Inhibitors of transcription factors and uses thereof” (Dana-Farber Cancer Institute, Inc., priority 2013, dated 2018).
